In ChEMBL document CHEMBL3525917, “Species difference in the mechanism of nonlinear pharmacokinetics of E2074, a novel sodium channel inhibitor, in rats, dogs, and monkeys” (Drug Metab Dispos, 2013):

What was measured:
[1] = Clearance in cynomolgus monkey at 1 mg/kg, iv; format: ADME, organism-based, Macaca fascicularis; set-up: dose 1 mg/kg, route intravenous; conditions: in vivo
[2] = AUC in cynomolgus monkey at 3 mg/kg, po; format: ADME, organism-based, Macaca fascicularis; set-up: dose 3 mg/kg, route oral; conditions: plasma
[3] = Tmax in Sprague-Dawley rat at 30 mg/kg, po; format: ADME, organism-based; set-up: dose 30 mg/kg, route oral; conditions: in vivo
[4] = AUC in beagle dog at 10 mg/kg, po; format: ADME, organism-based, Canis lupus familiaris; set-up: dose 10 mg/kg, route oral; conditions: plasma
Rattus norvegicus = species on record: Rattus norvegicus; test: Unbound intrinsic clearance in Sprague-Dawley rat; format: ADME, organism-based; conditions: in vivo
[5] = Blood clearance in cynomolgus monkey; format: ADME, organism-based, Macaca fascicularis
[6] = Tmax in beagle dog at 3 mg/kg, po; format: ADME, organism-based, Canis lupus familiaris; set-up: dose 3 mg/kg, route oral; conditions: in vivo
[7] = Cmax in Sprague-Dawley rat at 3 mg/kg, po; format: ADME, organism-based; set-up: dose 3 mg/kg, route oral; conditions: in vivo
[8] = Drug metabolism in beagle dog intestinal microsomes; format: ADME, Canis lupus familiaris, Intestine, Microsome
Cynomolgus monkey [9] = test: Ratio of dose normalized AUC in cynomolgus monkey at 10 mg/kg, po in presence of ketoconazole to dose normalized AUC in cynomolgus monkey at 10 mg/kg, po; format: ADME, organism-based, Macaca fascicularis; conditions: in vivo
[10] = Fraction unbound in beagle dog liver microsomes at 0.25 uM by equilibrium dialysis technique; format: ADME, Canis lupus familiaris
[11] = Fraction unbound in Sprague-Dawley rat liver microsomes at 0.25 uM by equilibrium dialysis technique; format: ADME
Canis familiaris = species on record: Canis familiaris; test: Hepatic blood clearance in beagle dog; format: ADME, organism-based, Canis lupus familiaris; conditions: in vivo
[12] = Ratio of drug level in brain to plasma in MDR1A/1B knock-out mouse at 3 mg/kg, po; format: ADME, organism-based; set-up: dose 3 mg/kg, route oral; conditions: brain and plasma
[13] = Cmax in beagle dog at 10 mg/kg, po; format: ADME, organism-based, Canis lupus familiaris; set-up: dose 10 mg/kg, route oral; conditions: in vivo
[14] = AUC in beagle dog at 3 mg/kg, po; format: ADME, organism-based, Canis lupus familiaris; set-up: dose 3 mg/kg, route oral; conditions: plasma
[15] = Tmax in Sprague-Dawley rat at 3 mg/kg, po; format: ADME, organism-based; set-up: dose 3 mg/kg, route oral; conditions: in vivo
[16] = Oral bioavailability in cynomolgus monkey at 3 mg/kg; format: ADME, organism-based, Macaca fascicularis; conditions: in vivo
[17] = Fraction unbound in Sprague-Dawley rat plasma at 0.25 uM by equilibrium dialysis technique; format: ADME, cell-free
[18] = Clearance in Sprague-Dawley rat at 1 mg/kg, iv; format: ADME, organism-based; set-up: dose 1 mg/kg, route intravenous; conditions: in vivo
[19] = Half life in cynomolgus monkey at 10 mg/kg, po; format: ADME, organism-based, Macaca fascicularis; set-up: dose 10 mg/kg, route oral; conditions: in vivo
Cynomolgus monkey [20] = test: Ratio of dose normalized AUC in cynomolgus monkey at 3 mg/kg, po in presence of ketoconazole to dose normalized AUC in cynomolgus monkey at 3 mg/kg, po; format: ADME, organism-based, Macaca fascicularis; conditions: in vivo
[21] = Oral bioavailability in beagle dog at 10 mg/kg; format: ADME, organism-based, Canis lupus familiaris; conditions: in vivo
[22] = Half life in beagle dog at 3 mg/kg, po; format: ADME, organism-based, Canis lupus familiaris; set-up: dose 3 mg/kg, route oral; conditions: in vivo
[23] = Half life in beagle dog at 1 mg/kg, iv; format: ADME, organism-based, Canis lupus familiaris; set-up: dose 1 mg/kg, route intravenous; conditions: in vivo
[24] = Drug metabolism in Sprague-Dawley rat intestinal microsomes; format: ADME, Intestine, Microsome
[25] = target: MDR1A (ABCB1, P-glycoprotein) (Mus musculus, UniProt P21447); test: Activity of mouse MDR1A expressed in pig LLC-PK1 cells assessed as permeability from basolateral to apical side at 1 uM after 2 hrs; format: ADME, cell-based; conditions: read-out: permeability
Chain of MDR1A (ABCB1, P-glycoprotein) (P21447 whole entry): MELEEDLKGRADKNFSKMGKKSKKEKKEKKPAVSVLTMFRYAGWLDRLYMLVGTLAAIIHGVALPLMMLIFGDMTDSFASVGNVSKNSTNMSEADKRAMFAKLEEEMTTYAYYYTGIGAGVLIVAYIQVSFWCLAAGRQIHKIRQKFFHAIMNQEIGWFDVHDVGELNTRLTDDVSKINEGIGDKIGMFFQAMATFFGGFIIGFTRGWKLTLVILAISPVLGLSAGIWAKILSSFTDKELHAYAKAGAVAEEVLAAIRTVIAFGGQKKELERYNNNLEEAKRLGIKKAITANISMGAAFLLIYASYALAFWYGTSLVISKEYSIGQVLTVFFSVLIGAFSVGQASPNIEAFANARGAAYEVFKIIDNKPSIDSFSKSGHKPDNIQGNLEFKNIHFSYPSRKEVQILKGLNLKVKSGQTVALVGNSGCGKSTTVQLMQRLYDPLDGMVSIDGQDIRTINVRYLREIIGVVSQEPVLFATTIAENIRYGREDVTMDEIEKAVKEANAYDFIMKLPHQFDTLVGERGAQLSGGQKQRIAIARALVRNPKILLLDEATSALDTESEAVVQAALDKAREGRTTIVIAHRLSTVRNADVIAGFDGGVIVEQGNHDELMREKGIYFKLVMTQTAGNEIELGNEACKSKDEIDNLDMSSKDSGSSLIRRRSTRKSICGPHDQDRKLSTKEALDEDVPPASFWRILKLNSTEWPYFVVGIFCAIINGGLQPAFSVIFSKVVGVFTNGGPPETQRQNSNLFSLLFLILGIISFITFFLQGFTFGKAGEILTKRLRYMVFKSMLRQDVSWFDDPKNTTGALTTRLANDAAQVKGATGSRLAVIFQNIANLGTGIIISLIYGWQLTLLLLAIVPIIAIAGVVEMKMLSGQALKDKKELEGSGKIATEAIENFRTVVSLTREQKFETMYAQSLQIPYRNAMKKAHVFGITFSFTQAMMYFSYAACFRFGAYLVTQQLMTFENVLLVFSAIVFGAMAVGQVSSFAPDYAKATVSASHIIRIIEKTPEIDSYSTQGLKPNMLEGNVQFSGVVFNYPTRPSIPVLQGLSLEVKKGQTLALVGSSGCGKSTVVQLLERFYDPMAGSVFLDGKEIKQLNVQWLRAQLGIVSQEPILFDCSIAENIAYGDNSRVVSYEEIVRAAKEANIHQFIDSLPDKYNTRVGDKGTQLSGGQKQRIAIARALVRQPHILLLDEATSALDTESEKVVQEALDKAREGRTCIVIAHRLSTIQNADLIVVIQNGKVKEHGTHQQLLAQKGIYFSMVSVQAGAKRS

[26] = AUC in Sprague-Dawley rat at 10 mg/kg, po; format: ADME, organism-based; set-up: dose 10 mg/kg, route oral; conditions: plasma
[27] = AUC in MDR1A/1B knock-out mouse at 3 mg/kg, po; format: ADME, organism-based; set-up: dose 3 mg/kg, route oral; conditions: plasma
[28] = Ratio of drug level in blood to plasma in Sprague-Dawley rat at 0.25 uM after 10 mins by equilibrium dialysis technique; format: ADME; conditions: blood and plasma
[29] = Half life in cynomolgus monkey at 1 mg/kg, iv in presence of ketoconazole; format: ADME, organism-based, Macaca fascicularis; set-up: dose 1 mg/kg, route intravenous; conditions: in vivo
[30] = Oral bioavailability in cynomolgus monkey at 10 mg/kg; format: ADME, organism-based, Macaca fascicularis; conditions: in vivo
Cynomolgus monkey [31] = test: Ratio of dose normalized Cmax in cynomolgus monkey at 3 mg/kg, po in presence of ketoconazole to dose normalized Cmax in cynomolgus monkey at 3 mg/kg, po; format: ADME, organism-based, Macaca fascicularis; conditions: in vivo
[32] = Cmax in cynomolgus monkey at 3 mg/kg, po in presence of ketoconazole; format: ADME, organism-based, Macaca fascicularis; set-up: dose 3 mg/kg, route oral; conditions: in vivo
[33] = AUC in wild-type mouse at 3 mg/kg, po; format: ADME, organism-based; set-up: dose 3 mg/kg, route oral; conditions: plasma
[34] = Half life in beagle dog at 10 mg/kg, po; format: ADME, organism-based, Canis lupus familiaris; set-up: dose 10 mg/kg, route oral; conditions: in vivo
[35] = AUC in beagle dog at 1 mg/kg, iv; format: ADME, organism-based, Canis lupus familiaris; set-up: dose 1 mg/kg, route intravenous; conditions: plasma
[36] = Tmax in cynomolgus monkey at 10 mg/kg, po in presence of ketoconazole; format: ADME, organism-based, Macaca fascicularis; set-up: dose 10 mg/kg, route oral; conditions: in vivo
[37] = Cmax in double-cannulated Sprague-Dawley rat portal vein at 10 mg/kg, po; format: ADME, organism-based; set-up: dose 10 mg/kg, route oral
[38] = Half life in Sprague-Dawley rat at 1 mg/kg, iv; format: ADME, organism-based; set-up: dose 1 mg/kg, route intravenous; conditions: in vivo
[39] = Oral bioavailability in Sprague-Dawley rat at 3 mg/kg; format: ADME, organism-based; conditions: in vivo
[40] = Half life in Sprague-Dawley rat at 30 mg/kg, po; format: ADME, organism-based; set-up: dose 30 mg/kg, route oral; conditions: in vivo
[41] = Blood clearance in beagle dog; format: ADME, organism-based, Canis lupus familiaris
[42] = Clearance in cynomolgus monkey at 1 mg/kg, iv in presence of ketoconazole; format: ADME, organism-based, Macaca fascicularis; set-up: dose 1 mg/kg, route intravenous; conditions: in vivo
[43] = Fraction unbound in cynomolgus monkey liver microsomes at 0.25 uM by equilibrium dialysis technique; format: ADME, Macaca fascicularis
[44] = Oral bioavailability in Sprague-Dawley rat at 30 mg/kg; format: ADME, organism-based; conditions: in vivo
[45] = AUC in cynomolgus monkey at 1 mg/kg, iv; format: ADME, organism-based, Macaca fascicularis; set-up: dose 1 mg/kg, route intravenous; conditions: plasma
[46] = Half life in cynomolgus monkey at 3 mg/kg, po; format: ADME, organism-based, Macaca fascicularis; set-up: dose 3 mg/kg, route oral; conditions: in vivo
Cynomolgus monkey [47] = test: Unbound intrinsic clearance in cynomolgus monkey; format: ADME, organism-based, Macaca fascicularis; conditions: in vivo
Liver microsome [48] = test: (§1) Drug metabolism in beagle dog liver microsomes after 30 mins by Michaelis-Menten plot analysis; format: ADME, Canis lupus familiaris; conditions: microsomes, 0.5 h
[49] = as §1; format: ADME, Canis lupus familiaris; conditions: beagle, liver microsomes
Liver microsome [50] = test: (§2) Drug metabolism in Sprague-Dawley rat liver microsomes after 7 mins by Michaelis-Menten plot analysis; format: ADME; conditions: microsomes, 7 min
[51] = as §2; format: ADME; conditions: Sprague-Dawley, liver microsomes
[52] = Volume of distribution at steady state in cynomolgus monkey at 1 mg/kg, iv; format: ADME, organism-based, Macaca fascicularis; set-up: dose 1 mg/kg, route intravenous; conditions: in vivo, read-out: Vdss

Work on Cc1nn(C[C@H](F)CN2C3CCC2CC(OCc2cccc(F)c2)C3)c(=O)n1C (some centres undefined) yielded a clearance [1] of 22.5 mL/min/kg, an AUC [2] of 180 ng·h/mL and a Tmax [3] of 15 min. It also gave an AUC [4] of 2730 ng·h/mL, a CL free (Rattus norvegicus) of 0.196 mL/min/mg and a clearance [5] of 22.3 mL/min/kg. The Tmax [6] was 30 min, the Cmax [7] was 20 ng/mL and the Drug metabolism [8] was “metabolite_not_detected”. The Ratio (Cynomolgus monkey [9]) was 6.3, the fraction unbound at 0.25 µM [10] was 1 and the fraction unbound at 0.25 µM [11] was 1. It also gave a CLH (Canis familiaris) of 1.83 L/h/kg, a Kp [12] of 8.3 and a Cmax [13] of 1070 ng/mL. It also gave an AUC [14] of 20 ng·h/mL, a Tmax [15] of 15 min and a bioavailability [16] of 7.8%. The fraction unbound at 0.25 µM [17] was 0.675, the clearance [18] was 53.5 mL/min/kg and the half-life [19] was 177 min. It also gave a Ratio (Cynomolgus monkey [20]) of 1, a bioavailability [21] of 43.7% and a half-life [22] of 54.6 min. For the same compound, the half-life [23] was 62.4 min, the Drug metabolism [24] was “metabolite_not_detected” and the Papp B→A at 2 h, 1 µM [25] was 30.4 ×10⁻⁶ cm/s. It also gave an AUC [26] of 170 ng·h/mL, an AUC [27] of 240 ng·h/mL and a blood plasma ratio at 10 min, 0.25 µM [28] of 0.89. It also gave a half-life [29] of 118 min, a bioavailability [30] of 20.9% and a Ratio (Cynomolgus monkey [31]) of 1. For the same compound, the Cmax [32] was 400 ng/mL, the AUC [33] was 230 ng·h/mL and the half-life [34] was 109 min. For the same compound, the AUC [35] was 620 ng·h/mL, the Tmax [36] was 2 h and the Cmax [37] was 10600 ng/mL. It also gave a half-life [38] of 51 min, a bioavailability [39] of 2.6% and a half-life [40] of 81.6 min. It also gave a clearance [41] of 32.8 mL/min/kg, a clearance [42] of 20.3 mL/min/kg and a fraction unbound at 0.25 µM [43] of 1. For the same compound, the bioavailability [44] was 15.1%, the AUC [45] was 700 ng·h/mL and the half-life [46] was 95.4 min. It also gave a CL free (Cynomolgus monkey [47]) of 0.084 mL/min/mg, a Vmax (Liver microsome [48]) of 0.07 nmol/min/mg and a Km at 0.5 h [49] of 410 nM. For the same compound, the Vmax (Liver microsome [50]) was 1.42 nmol/min/mg, the Km at 7 min [51] was 7.23 µM and the Vd [52] was 3.07 L/kg.
